# Results published in EP2054729B1, “PROCESS AND APPARATUS FOR ION CHANNEL CHARACTERIZATION” (Universität Hannover, priority 2006, dated 2008).
# Biological target: T1, connexin hCx26 (Homo sapiens, UniProt P29033)
# T1 construct: made in house; host or cells: E. coli Top10
# Experiment: Permeation (gating activity) assay with ion channel protein in lipid membrane vesicles, fluorescence detection of Lucifer Yellow release
# Assay type: biochemical
# Conditions: for inhibitory effect: concentration range in which inhibition of gating activity was shown, same experimental setup as for carbenoxolone, vesicles adjusted to 50 µM Ca^2+, triggered by EDTA addition or heat pulse
# Method: Lipid membrane vesicles are generated by resuspending a POPC lipid film in 150 mM sodium chloride, 10 mM Tris-HCl, pH 8, containing Lucifer Yellow as a replacement for the cation species permeated by the exemplary ion channel protein.
# Following centrifugation, the supernatant is removed and vesicles are suspended in the same medium for 10 minutes. As the ion channel protein, connexin hCx26, reconstituted to its hexameric form after expression in the E.coli strain Top10 (Invitrogen), using the expression plasmid pTrcHisTOPO (available from Invitrogen, Germany) containing the hCx26 gene under the control of a trc-promoter. The gene sequence is accessible at GenBank under accession number NP 003995. Cultivation was in LB-medium containing ampicillin as the selection marker at 37 °C.
# For incorporation of ion channel protein, 250 µg/mL were solubilised in 30 mM octylglucoside, 150 mM sodium chloride, 10 mM Tris-HCl, pH 8 and added to 1 mL lipid membrane vesicle suspension (10 mg POPC/mL). After incubation for 1 to 12 hours under mild agitation at 4 °C, detergent was removed by dialysis for two days at 4 °C in 150 mM sodium chloride, 10 mM Tris-HCl, pH 8, including three changes of buffer volume. Finally, the vesicles were transferred by dialysis against buffer into 150 mM sodium chloride, 10 mM Tris-HCl, pH 8 at 4 °C for removal of the ion species, namely the replacement Lucifer Yellow or the physiologically permeated ion potassium, which are permeated by the ion channel protein present. […]
# Starting at a basic temperature of 4 °C, the microtiter plate was heated incrementally by steps of 2 °C each using a thermostat, with intermediate or permanent measurement of fluorescence emission under irradiation at the excitation wavelength.
# From a comparison of the increase of fluorescence at increasing temperatures of a reaction composition containing the effector to that measured for an identical composition, except for the absence of effector, allows to characterize the effector at its given concentration in the assay, e.g. as an inhibitor, activator or modulator of the gating activity. […]
"concentration dependency of gating activity (carbenoxolone up to final concentrations of 10 mM, plate at 28 °C, result shown graphically only (Figures 9 and 10))",inhibitory effect,Compound
inhibitory effect,,CC1(C)[C@@H](OC(=O)CCC(=O)O)CC[C@]2(C)[C@H]3C(=O)C=C4[C@@H]5C[C@@](C)(C(=O)O)CC[C@]5(C)CC[C@@]4(C)[C@]3(C)CC[C@@H]12 [carbenoxolone]
,nanomolar to picomolar range,CCCCCCCO [heptanol]
,millimolar to micromolar range,cobalt ions
